Results reported in US12270016B1, “Structure and function of modular microfluidic device for in-vitro modeling of human organs” (Alfaisal University, priority 2024, dated 2025).

Assays:
[1] = tested on: differentiated adipocytes; test: Glucose uptake by the adipocytes (2-NBDG glucose uptake assay kit) in microfluidic device; format: cell-based, human
Experimental: (§1) Cell Culture: In vitro model of the human inflamed adipose tissue (adipocyte/immune cell coculture): Prior to seeding the cells into the microfluidic device, the fluidic compartments underwent a sterilization process by filling them with 70% ethanol for a minimum of 4 hours. Afterward, the microfluidic devices were washed with deionized water, and each microfluidic device was loaded with 100 μL of Poly-L-lysine solution (0.1 mg/mL in H2O) and incubated overnight at 37° C. The microfluidic devices were then washed again, first with sterilized deionized water and then with phosphate-buffered saline (PBS). Next, the microfluidic devices were primed with a preadipocyte growth medium from (Cell Applications). […] Cell viability and morphological changes were monitored using a microscope. […] The concentrations of Tumor Necrosis Factor (TNFα) and Interleukin-6 (IL-6) in the supernatants were measured using an ELISA method. […] The percentage of calcein-AM-labeled cells was used to quantify cell viability. The growth and morphology of the cells were regularly monitored under the microscope. […] To assess cell differentiation of the adipocytes, the lipid content within adipocytes was monitored by staining the lipid droplets with Oil Red O (Sigma-Aldrich, St. Louis, MO, USA). […]

[2] = tested on: Adipocytes and U937 cells; test: Cytokine immunoassay (ELISA) of supernatants from adipocyte/immune cell co-culture in VasChip3x2 microfluidic device; format: cell-based, human; details: inflammation state induced with 100 ng/ml LPA
Experimental: as §1

Row | Substance | glucose uptake ([1]; adipocyte monoculture, after insulin treatment) | cytokine secretion (TNF and IL-6 in the supernatants) [2] | glucose uptake ([1]; adipocyte/U937 co-culture, inflammation state induced with 100 ng/ml LPA)
1 | insulin | significant glucose uptake |  | 
2 | lysophosphatidic acid [LPA] |  | significant increase | decrease
